ChEMBL document CHEMBL4004838, “Design and synthesis of novel phenyl -1, 4-beta-carboline-hybrid molecules as potential anticancer agents” (Eur J Med Chem, 2017)

Columns and labels:
Assay type in all cases: functional
[1] = test system: NCI-H23; test: Growth inhibition of human NCI-H23 cells incubated for 48 hrs by sulforhodamine B assay; conditions: NCI-H23, 48 h
[2] = test system: NCI-H460; test: Growth inhibition of human NCI-H460 cells incubated for 48 hrs by sulforhodamine B assay; conditions: NCI-H460, 48 h
[3] = test system: HCT-15; test: Growth inhibition of human HCT15 cells incubated for 48 hrs by sulforhodamine B assay; conditions: HCT-15, 48 h
[4] = test system: SK-MEL-2; test: Growth inhibition of human SK-MEL-2 cells incubated for 48 hrs by sulforhodamine B assay; conditions: SK-MEL-2, 48 h
[5] = test system: NCI-H460; test: Growth inhibition of human NCI-H460 cells assessed as cell growth at 0.01 uM incubated for 48 hrs by sulforhodamine B assay relative to control; conditions: NCI-H460, 48 h, read-out: Activity
[6] = test system: KM12; test: Growth inhibition of human KM12 cells assessed as cell growth at 0.01 uM incubated for 48 hrs by sulforhodamine B assay relative to control; conditions: KM12, 48 h, read-out: Activity
[7] = test system: SK-MEL-28; test: Growth inhibition of human SK-MEL-28 cells assessed as cell growth at 0.01 uM incubated for 48 hrs by sulforhodamine B assay relative to control; conditions: SK-MEL-28, 48 h, read-out: Activity
[8] = test system: OVCAR-5; test: Growth inhibition of human OVCAR5 cells assessed as cell growth at 0.01 uM incubated for 48 hrs by sulforhodamine B assay relative to control; conditions: OVCAR-5, 48 h, read-out: Activity
[9] = test system: TK-10; test: Growth inhibition of human TK10 cells assessed as cell growth at 0.01 uM incubated for 48 hrs by sulforhodamine B assay relative to control; conditions: TK-10, 48 h, read-out: Activity
[10] = test system: MCF7; test: Growth inhibition of human MCF7 cells assessed as cell growth at 0.01 uM incubated for 48 hrs by sulforhodamine B assay relative to control; conditions: MCF7, 48 h, read-out: Activity
[11] = test system: T47D; test: Growth inhibition of human T47D cells assessed as cell growth at 0.01 uM incubated for 48 hrs by sulforhodamine B assay relative to control; conditions: read-out: Activity
[12] = test system: SR; test: Growth inhibition of human SR cells assessed as cell growth at 0.1 uM incubated for 48 hrs by sulforhodamine B assay relative to control; conditions: read-out: Activity
[13] = test system: SF-295; test: Growth inhibition of human SF295 cells assessed as cell growth at 0.1 uM incubated for 48 hrs by sulforhodamine B assay relative to control; conditions: SF-295, 48 h, read-out: Activity
[14] = test system: SNB-75; test: Growth inhibition of human SNB75 cells assessed as cell growth at 0.1 uM incubated for 48 hrs by sulforhodamine B assay relative to control; conditions: SNB-75, 48 h, read-out: Activity
[15] = test system: MDA-MB-435; test: Growth inhibition of human MDA-MB-435 cells assessed as cell growth at 0.1 uM incubated for 48 hrs by sulforhodamine B assay relative to control; conditions: MDA-MB-435, 48 h, read-out: Activity
[16] = test system: SK-MEL-2; test: Growth inhibition of human SK-MEL-2 cells assessed as cell growth at 0.1 uM incubated for 48 hrs by sulforhodamine B assay relative to control; conditions: SK-MEL-2, 48 h, read-out: Activity
[17] = test system: OVCAR-4; test: Growth inhibition of human OVCAR4 cells assessed as cell growth at 0.1 uM incubated for 48 hrs by sulforhodamine B assay relative to control; conditions: OVCAR-4, 48 h, read-out: Activity
[18] = test system: RXF 393; test: Growth inhibition of human RXF393 cells assessed as cell growth at 0.1 uM incubated for 48 hrs by sulforhodamine B assay relative to control; conditions: RXF 393, 48 h, read-out: Activity
[19] = test system: HL-60(TB); test: Growth inhibition of human HL-60(TB) cells assessed as cell growth at 1 uM incubated for 48 hrs by sulforhodamine B assay relative to control; conditions: HL-60, 48 h, read-out: Activity
[20] = test system: NCI-H226; test: Growth inhibition of human NCI-H226 cells assessed as cell growth at 1 uM incubated for 48 hrs by sulforhodamine B assay relative to control; conditions: NCI-H226, 48 h, read-out: Activity
[21] = test system: NCI-H23; test: Growth inhibition of human NCI-H23 cells assessed as cell growth at 1 uM incubated for 48 hrs by sulforhodamine B assay relative to control; conditions: NCI-H23, 48 h, read-out: Activity
[22] = test system: HT-29; test: Growth inhibition of human HT-29 cells assessed as cell growth at 1 uM incubated for 48 hrs by sulforhodamine B assay relative to control; conditions: HT-29, 48 h, read-out: Activity
[23] = test system: SNB-75; test: Growth inhibition of human SNB75 cells assessed as cell growth at 1 uM incubated for 48 hrs by sulforhodamine B assay relative to control; conditions: SNB-75, 48 h, read-out: Activity
[24] = test system: SK-MEL-2; test: Growth inhibition of human SK-MEL-2 cells assessed as cell growth at 1 uM incubated for 48 hrs by sulforhodamine B assay relative to control; conditions: SK-MEL-2, 48 h, read-out: Activity
[25] = test system: OVCAR-3; test: Growth inhibition of human OVCAR3 cells assessed as cell growth at 1 uM incubated for 48 hrs by sulforhodamine B assay relative to control; conditions: OVCAR-3, 48 h, read-out: Activity
[26] = test system: PC-3; test: Growth inhibition of human PC3 cells assessed as cell growth at 1 uM incubated for 48 hrs by sulforhodamine B assay relative to control; conditions: PC-3, 48 h, read-out: Activity
[27] = test system: A549; test: Growth inhibition of human A549/ATCC cells assessed as cell growth at 100 uM incubated for 48 hrs by sulforhodamine B assay relative to control; conditions: A549, 48 h, read-out: Activity
[28] = test system: HOP-62; test: Growth inhibition of human HOP62 cells assessed as cell growth at 100 uM incubated for 48 hrs by sulforhodamine B assay relative to control; conditions: HOP-62, 48 h, read-out: Activity
[29] = test system: HOP-92; test: Growth inhibition of human HOP92 cells assessed as cell growth at 100 uM incubated for 48 hrs by sulforhodamine B assay relative to control; conditions: HOP-92, 48 h, read-out: Activity
[30] = test system: HCT-15; test: Growth inhibition of human HCT15 cells assessed as cell growth at 100 uM incubated for 48 hrs by sulforhodamine B assay relative to control; conditions: HCT-15, 48 h, read-out: Activity
[31] = test system: MDA-MB-468; test: Growth inhibition of human MDA-MB-468 cells assessed as cell growth at 100 uM incubated for 48 hrs by sulforhodamine B assay relative to control; conditions: MDA-MB-468, 48 h, read-out: Activity
[32] = read-out: LC50 (the source's name)
[33] = read-out: pLC50 (the source's name) (converted)

In the case of `c1ccc2c3c([nH]c2c1)C(c1ccc(C2NCCc4c2[nH]c2ccccc42)cc1)NCC3` (racemic), the GI50 ([1]; read-out: GI50) is reported as 1.65 µM, the CC50 [1, 32] is reported as 6.83 µM and the TGI ([1]; read-out: TGI) is reported as 3.36 µM. It also gave a GI50 ([1]; read-out: pGI50 (converted)) of 1.66 µM, a CC50 [1, 33] of 6.76 µM and a TGI ([1]; read-out: pTGI (converted)) of 3.39 µM. The GI50 ([2]; read-out: GI50) was 2.21 µM, the CC50 [2, 32] was 9.12 µM and the TGI ([2]; read-out: TGI) was 4.49 µM. For the same compound, the GI50 ([2]; read-out: pGI50 (converted)) was 0.219 µM, the CC50 [2, 33] was 0.912 µM and the TGI ([2]; read-out: pTGI (converted)) was 4.47 µM. It also gave a GI50 ([3]; read-out: pGI50 (converted)) of 0.427 µM, a TGI ([3]; read-out: pTGI (converted)) of 1.78 µM and a GI50 ([4]; read-out: GI50) of 1.7 µM. For the same compound, the CC50 [4, 32] was 7.47 µM, the TGI ([4]; read-out: TGI) was 3.57 µM and the GI50 ([4]; read-out: pGI50 (converted)) was 1.7 µM. It also gave a CC50 [4, 33] of 7.41 µM, a TGI ([4]; read-out: pTGI (converted)) of 3.55 µM and a growth at 0.01 µM [5] of 105%. The growth at 0.01 µM [6] was 101%, the growth at 0.01 µM [7] was 95% and the growth at 0.01 µM [8] was 91%. It also gave a growth at 0.01 µM [9] of 97%, a growth at 0.01 µM [10] of 88% and a growth at 0.01 µM [11] of 82%. The growth at 0.1 µM [12] was 106%, the growth at 0.1 µM [13] was 92% and the growth at 0.1 µM [14] was 72%. It also gave a growth at 0.1 µM [15] of 99%, a growth at 0.1 µM [16] of 94% and a growth at 0.1 µM [17] of 91%. It also gave a growth at 0.1 µM [18] of 101%, a growth at 1 µM [19] of 57% and a growth at 1 µM [20] of 94%. It also gave a growth at 1 µM [21] of 85%, a growth at 1 µM [22] of 16% and a growth at 1 µM [23] of 46%. The growth at 1 µM [24] was 86%, the growth at 1 µM [25] was 65% and the growth at 1 µM [26] was 66%. It also gave a growth at 100 µM [27] of 87%, a growth at 100 µM [28] of 83% and a growth at 100 µM [29] of 90%. For the same compound, the growth at 100 µM [30] was 90% and the growth at 100 µM [31] was -78%.

In the case of `c1ccc2[nH]c(-c3ccc(-c4nccc5c4[nH]c4ccccc45)cc3)nc2c1`, the CC50 [1, 32] is reported as 8.7 µM, the GI50 ([1]; read-out: pGI50 (converted)) is reported as 3.47 µM and the CC50 [1, 33] is reported as 87.1 µM. For the same compound, the TGI ([1]; read-out: pTGI (converted)) was 17.8 µM, the GI50 ([2]; read-out: GI50) was 3.03 µM and the CC50 [2, 32] was over 1 µM. For the same compound, the TGI ([2]; read-out: TGI) was 9.8 µM, the GI50 ([2]; read-out: pGI50 (converted)) was 3.02 µM and the CC50 [2, 33] was over 100 µM. For the same compound, the TGI ([2]; read-out: pTGI (converted)) was 9.77 µM, the GI50 ([3]; read-out: GI50) was 2.22 µM and the LC50 ([3]; read-out: LC50) was 3 µM. For the same compound, the TGI ([3]; read-out: TGI) was 5.61 µM, the GI50 ([3]; read-out: pGI50 (converted)) was 2.24 µM and the LC50 ([3]; read-out: pLC50 (converted)) was 30.2 µM. For the same compound, the TGI ([3]; read-out: pTGI (converted)) was 5.62 µM, the GI50 ([4]; read-out: GI50) was 1.99 µM and the CC50 [4, 32] was 9.45 µM. The TGI ([4]; read-out: TGI) was 4.34 µM, the GI50 ([4]; read-out: pGI50 (converted)) was 2 µM and the CC50 [4, 33] was 9.55 µM. The TGI ([4]; read-out: pTGI (converted)) was 4.37 µM, the growth at 0.01 µM [5] was 107% and the growth at 0.01 µM [6] was 95%. It also gave a growth at 0.01 µM [7] of 96%, a growth at 0.01 µM [8] of 94% and a growth at 0.01 µM [9] of 96%. The growth at 0.01 µM [10] was 91%, the growth at 0.01 µM [11] was 88% and the growth at 0.1 µM [12] was 93%. It also gave a growth at 0.1 µM [13] of 97%, a growth at 0.1 µM [14] of 78% and a growth at 0.1 µM [15] of 93%. For the same compound, the growth at 0.1 µM [16] was 97%, the growth at 0.1 µM [17] was 98% and the growth at 0.1 µM [18] was 108%. It also gave a growth at 1 µM [19] of 94%, a growth at 1 µM [20] of 96% and a growth at 1 µM [21] of 88%. The growth at 1 µM [22] was 106%, the growth at 1 µM [23] was 74% and the growth at 1 µM [24] was 94%. It also gave a growth at 1 µM [25] of 92%, a growth at 1 µM [26] of 95% and a growth at 100 µM [27] of 58%. For the same compound, the growth at 100 µM [28] was 70%, the growth at 100 µM [29] was 76% and the growth at 100 µM [30] was 71%. The growth at 100 µM [31] was 63%.
